Data on 26 compounds can be found in patent US11700853B2, “Plant health compositions comprising a water-soluble pesticide and a water-insoluble agrochemical” (priority 2010, dated 2023).

In brackets after ≈: the same amount, converted by molar mass.

For data set [1] the following is noted: at 20° C.; cited from earlier work.
The nature of data set [2]: Dissolution/melting temperature in surfactants by differential scanning calorimetry (DSC). Particulars: for effect of surfactants on dissolution/melting temperature: cationic, nonionic and anionic surfactants tested, compared to absence of a surfactant.
Data set [3] is described as follows: Dissolution in surfactants at 20% w/v on heating in a water bath, then cooling to room temperature. Particulars: for Dissolution temp.: temperature at which the mixture cleared.
Where [4] appears, read: 20% w/v in AGM-550, cooled to 20-25° C. after 45 ° C.
The mark [5] stands for this setting: 20% w/v in Ethomeen T/15, cooled to 20-25° C. after 50 ° C.
[6] abbreviates: 20% w/v in Ethomeen T/15 at 45 ° C.
[7] abbreviates: 20% w/v in Ethomeen T/15 at 50 ° C.
Where [8] appears, read: 20% w/v in coco quaternary amine 2 EO (Ethoquad C/12).
[9] abbreviates: 20% w/v in cocoamine 2EO (Ethomeen C/12).

`CCC(Oc1ccc(F)c(C(F)(F)F)c1)C(=O)NCc1ccccc1` (stereo not drawn) [beflubutamid]: in data set [1], the “water solubility (Solub.)” value is recorded as 3.3 mg/L (≈ 9.29 µM).
With `CC(=O)O.CC1CN(C2CCCCCCCCCCC2)CC(C)O1` (stereo not drawn) [dedemorph acetate], in data set [1], the “water solubility (Solub.)” value is reported as 736 mg/L.
Take `COP(=O)(OC)O/C(=C\Cl)c1ccc(Cl)cc1Cl` [dimethylvinphos]: the “water solubility (Solub.)” value in data set [1] was 0.13 mg/L (≈ 0.392 µM).
As to `CCC(C)c1cc([N+](=O)[O-])cc([N+](=O)[O-])c1OC(=O)OC(C)C` (stereo not drawn) [dinobuton], the “water solubility (Solub.)” value in data set [1] is 0.1 mg/L (≈ 0.306 µM).
On to `CC1CN(C2CCCCCCCCCCC2)CC(C)O1` (stereo not drawn) [dodemorph], for which the “water solubility (Solub.)” value in data set [1] was less than 100 mg/L.
Consider `CCOCOc1ccc(C(=O)Nc2cccc(Cl)c2Cl)cc1` [etobenzanid], for which the “water solubility (Solub.)” value in data set [1] is recorded as 0.9 mg/L (≈ 2.65 µM).
In the case of `CC(Oc1ccc(Cl)cc1Cl)C(=O)NC(C)(C#N)C(C)C` (stereo not drawn) [fenoxanil], the “water solubility (Solub.)” value in data set [1] was 30.7 mg/L (≈ 93.2 µM).
Regarding `CCOC(=O)[C@@H](C)Oc1ccc(Oc2nc3ccc(Cl)cc3o2)cc1` [fenoxaprop-P-ethyl], the “water solubility (Solub.)” value in data set [1] is on record as 0.7 mg/L (≈ 1.93 µM).
`CCOC(=O)C(C)Oc1ccc(Oc2nc3ccc(Cl)cc3o2)cc1` (stereo not drawn) [fenoxaprop-ethyl]: in data set [1], the “water solubility (Solub.)” value is listed as 0.9 mg/L (≈ 2.49 µM).
Regarding `CCOC(=O)NCCOc1ccc(Oc2ccccc2)cc1` [fenoxycarb], the “water solubility (Solub.)” value in data set [1] is listed as 7.9 mg/L (≈ 26.2 µM).
`CCCCCOC(=O)COc1cc(N2C(=O)C3=C(CCCC3)C2=O)c(F)cc1Cl` [flumiclorac-pentyl]: the “water solubility (Solub.)” value in data set [1] is listed as 0.2 mg/L (≈ 0.472 µM).
Take `CCOC(=O)C(C)Oc1ccc(Oc2ncc(C(F)(F)F)cc2Cl)cc1` (stereo not drawn) [haloxyfop-ethyl]: the “water solubility (Solub.)” value in data set [1] is 0.6 mg/L (≈ 1.54 µM).
Take `C=CCOC(Cn1ccnc1)c1ccc(Cl)cc1Cl` (stereo not drawn) [imazalil]: the “water solubility (Solub.)” value in data set [1] is on record as 0.1 mg/L (≈ 0.336 µM).
As to `C#CCOc1ccc(CCNC(=O)C(OCC#C)c2ccc(Cl)cc2)cc1OC` (stereo not drawn) [mandipropamid], the “water solubility (Solub.)” value in data set [1] is on record as 4.2 mg/L (≈ 10.2 µM).
`CCOC(=O)C1=NN(c2ccc(Cl)cc2Cl)C(C)(C(=O)OCC)C1` (stereo not drawn) [mefenpyr-diethyl]: the “water solubility (Solub.)” value in data set [1] is 20 mg/L (≈ 53.6 µM).
On to `CO/C=C(/C(=O)OC)c1ccccc1COc1cccc(C(F)(F)F)n1` [picoxystrobin], for which the “water solubility (Solub.)” value in data set [1] is 3.1 mg/L (≈ 8.44 µM).
Turning to `CCOP(=S)(OCC)Oc1ccc(=O)n(-c2ccccc2)n1` [pyridaphenthion], the “water solubility (Solub.)” value in data set [1] is on record as 55.2 mg/L (≈ 162 µM).
In the case of `CCOC(=O)[C@@H](C)Oc1ccc(Oc2cnc3cc(Cl)ccc3n2)cc1` [quizalofop-P-ethyl], the melting/dissolution point in data set [2] (40 wt % in C6-9 amidopropyl dimethylamine surfactant (ARMEEN APA 9), FIG. 16) was determined as 63 °C; in data set [2] (65 wt % in C6-9 amidopropyl dimethylamine surfactant (ARMEEN APA 9), FIG. 16), 69 °C. For the same compound, the “effect of surfactants on dissolution/melting temperature” value in data set [2] was “reduced”. Also, the “Observation at room temp.” value is recorded as “Dissolved” in data set [3] (setting [4]); “Dissolved” in data set [3] (20% w/v in Armeen APA 9, cooled to 20-25° C. after 50 ° C.); “Dissolved” in data set [3] (20% w/v in Ethomeen C/12, cooled to 20-25° C. after 55 ° C.); “Dissolved” in data set [3] (20% w/v in Ethomeen C/12, cooled to 20-25° C. after 65 ° C.); “Dissolved” in data set [3] (setting [5]); “Dissolved” in data set [3] (20% w/v in Ethoquad C/12, cooled to 20-25° C. after 65 ° C.). For the same compound, the “Observation at room temp.” value in data set [3] (20% w/v in alkylamine oxide, cooled to 20-25° C. after 60 ° C.) is on record as “Dissolved”. In addition, the Dissolution temp. in data set [3] (20% w/v in AGM-550) turned out to be 45 °C; in data set [3] (20% w/v in Armeen APA 9), 50 °C; in data set [3] (20% w/v in Ethomeen T/15) it was 50 °C; in data set [3] (20% w/v in alkylamine oxide), 60 °C; in data set [3] (setting [8]) it was 65 °C; in data set [3] (setting [9]), 55 °C. For the same compound, the Observation entry in data set [3] (20% w/v in AGM-550 at 45 ° C.) is “Dissolved”; in data set [3] (20% w/v in Armeen APA 9 at 45 ° C.) it was “Not Dissolved”; in data set [3] (20% w/v in Armeen APA 9 at 50 ° C.), “Dissolved”; in data set [3] (20% w/v in Ethomeen C/12 at 50 ° C.), “Not Dissolved”; in data set [3] (20% w/v in Ethomeen C/12 at 55 ° C.), “Dissolved”; in data set [3] (20% w/v in Ethomeen C/12 at 65 ° C.), “Dissolved”. Besides, the Observation result in data set [3] (setting [6]) is recorded as “Not Dissolved”; in data set [3] (setting [7]) it was “Dissolved”; in data set [3] (20% w/v in Ethoquad C/12 at 55 ° C.) it was “Not Dissolved”; in data set [3] (20% w/v in Ethoquad C/12 at 65 ° C.), “Dissolved”; in data set [3] (20% w/v in alkylamine oxide at 60 ° C.) it was “Dissolved”.
On to `C=CCNC(=O)c1c([Si](C)(C)C)sc(C)c1C` [silithiofam], for which, in data set [1], the “water solubility (Solub.)” value is 39.9 mg/L (≈ 149 µM).
As for `CC(C)(C)C(O)(CCc1ccc(Cl)cc1)Cn1cncn1` (stereo not drawn) [tebuconazole], the melting/dissolution point in data set [2] (40 wt % in ethoxylated cocoamine (2EO) surfactant, FIG. 14) came out at 71 °C; in data set [2] (65 wt % in ethoxylated cocoamine (2EO) surfactant, FIG. 14), 91 °C. For the same compound, in data set [2] (amidopropylamine surfactant), the “dissolution/melting point, rank among surfactants tested” value is reported as “lowest”. Besides, the “effect of surfactants on dissolution/melting temperature” value in data set [2] is on record as “reduced”. Also, the “Observation at room temp.” value in data set [3] (setting [4]) was “Dissolved”; in data set [3] (20% w/v in Armeen APA 9, cooled to 20-25° C. after 40 ° C.), “Dissolved”; in data set [3] (20% w/v in Ethomeen C/12, cooled to 20-25° C. after 45 ° C.) it was “Dissolved”; in data set [3] (setting [5]) it was “Dissolved”; in data set [3] (20% w/v in Ethoquad C/12, cooled to 20-25° C. after 45 ° C.) it was “Dissolved”; in data set [3] (20% w/v in Surfonic L24-9, cooled to 20-25° C. after 50 ° C.), “Dissolved”. In data set [3] (20% w/v in alkylamine oxide, cooled to 20-25° C. after 45 ° C.), the “Observation at room temp.” value was “Dissolved”. For the same compound, the Dissolution temp. in data set [3] (20% w/v in AGM-550) came to 45 °C; in data set [3] (20% w/v in Armeen APA 9), 40 °C; in data set [3] (20% w/v in Ethomeen T/15), 50 °C; in data set [3] (20% w/v in Surfonic L24-9), 50 °C; in data set [3] (20% w/v in alkylamine oxide), 45 °C; in data set [3] (setting [8]) it was 45 °C. Moreover, the Dissolution temp. in data set [3] (setting [9]) amounted to 45 °C. Further, the Observation result in data set [3] (20% w/v in AGM-550 at 45 ° C.) is recorded as “Dissolved”; in data set [3] (20% w/v in Armeen APA 9 at 40 ° C.), “Dissolved”; in data set [3] (20% w/v in Ethomeen C/12 at 45 ° C.), “Dissolved”; in data set [3] (setting [6]), “Not Dissolved”; in data set [3] (setting [7]) it was “Dissolved”; in data set [3] (20% w/v in Ethoquad C/12 at 45 ° C.), “Dissolved”. Besides, the results for the Observation result in data set [3] (20% w/v in Surfonic L24-9 at 45 ° C.), in data set [3] (20% w/v in Surfonic L24-9 at 50 ° C.) and in data set [3] (20% w/v in alkylamine oxide at 45 ° C.) were “Not Dissolved”, “Dissolved” and “Dissolved”, respectively.
For `COP(=S)(OC)Oc1c(Cl)cc(C)cc1Cl` [tolclofos-methyl], the “water solubility (Solub.)” value in data set [1] is given as 1.1 mg/L (≈ 3.65 µM).
`Cc1ccc(N(SC(F)(Cl)Cl)S(=O)(=O)N(C)C)cc1` [tolyfluanid]: the “water solubility (Solub.)” value in data set [1] is listed as 0.9 mg/L (≈ 2.59 µM).
Take `CC(C)(C)C(=O)C(Oc1ccc(Cl)cc1)n1cncn1` (stereo not drawn) [triadimefon]: the “water solubility (Solub.)” value in data set [1] is 64 mg/L (≈ 218 µM).
As to anilofos, the “water solubility (Solub.)” value in data set [1] is listed as 13.6 mg/L.
Take beta-cypermemethrin: in data set [1], the “water solubility (Solub.)” value was 51.5 mg/L.
As to butafenamid, in data set [1], the “water solubility (Solub.)” value is 3.3 mg/L.
